The target in one assay is Cathepsin D (Homo sapiens, UniProt P07339).
A further assay has as its target Beta-secretase 1 (Homo sapiens, UniProt P56817).
The species entered for a further assay is Homo sapiens. Briefly: Selectivity for human BACE1 over human cathepsin D.

Chain of Cathepsin D (P07339 65-162 limits assumed): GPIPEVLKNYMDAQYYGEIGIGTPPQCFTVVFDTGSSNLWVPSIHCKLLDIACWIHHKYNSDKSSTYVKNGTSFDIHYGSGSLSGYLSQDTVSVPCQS
Chain of Cathepsin D (P07339 169-412 limits assumed): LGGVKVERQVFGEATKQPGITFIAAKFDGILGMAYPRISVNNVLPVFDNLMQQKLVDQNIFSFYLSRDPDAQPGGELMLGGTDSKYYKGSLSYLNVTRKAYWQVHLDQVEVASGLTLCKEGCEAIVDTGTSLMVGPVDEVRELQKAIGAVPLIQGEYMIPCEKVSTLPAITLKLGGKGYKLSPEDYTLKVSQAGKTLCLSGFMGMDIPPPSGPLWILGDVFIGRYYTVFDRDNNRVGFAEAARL
Chain of Beta-secretase 1 (P56817 whole entry): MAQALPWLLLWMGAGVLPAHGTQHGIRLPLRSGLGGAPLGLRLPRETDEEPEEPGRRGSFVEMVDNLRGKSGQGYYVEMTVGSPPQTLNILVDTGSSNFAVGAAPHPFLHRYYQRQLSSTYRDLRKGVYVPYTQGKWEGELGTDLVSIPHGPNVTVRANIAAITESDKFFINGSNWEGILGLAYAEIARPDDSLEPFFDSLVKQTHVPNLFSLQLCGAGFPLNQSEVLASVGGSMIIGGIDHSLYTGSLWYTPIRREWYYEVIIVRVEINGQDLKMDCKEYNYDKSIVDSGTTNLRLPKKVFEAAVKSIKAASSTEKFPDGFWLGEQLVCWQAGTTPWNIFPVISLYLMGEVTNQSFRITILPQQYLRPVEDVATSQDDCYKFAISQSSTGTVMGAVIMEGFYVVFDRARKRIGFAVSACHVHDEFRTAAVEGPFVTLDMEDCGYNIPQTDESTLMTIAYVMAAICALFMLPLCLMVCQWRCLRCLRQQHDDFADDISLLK
Description for Beta-secretase 1: Inhibition of human BACE1 expressed in Escherichia coli BL21(DE3) by resolved fluorescence assay
Description for Cathepsin D: Inhibition of human cathepsin D

The Ki is the dissociation constant of the complex between target and ligand, obtained from inhibition or displacement. For the compound `CO[C@H](C[C@H](N)C(COc1cc(F)cc(F)c1)NC(=O)c1cc(C(=O)N[C@H](C)c2ccccc2)cc(N(C)S(C)(=O)=O)c1)C(=O)N[C@H](C(=O)NCc1ccccc1)C(C)C` (single isomer, unassigned), the Ki is > 5000 nM on Cathepsin D and 140 nM at Beta-secretase 1.

On to `CCCO[C@H](C[C@H](O)[C@H](COc1cc(F)cc(F)c1)NC(=O)c1cc(C(=O)N[C@H](C)c2ccccc2)cc(N(C)S(C)(=O)=O)c1)C(=O)N[C@H](C(=O)NCc1ccccc1)C(C)C`, for which the Ki was found to be 61 nM on Cathepsin D and 3 nM on Beta-secretase 1.

`CO[C@H](C[C@H](N=[N+]=[N-])C(COc1cc(F)cc(F)c1)NC(=O)c1cc(C(=O)N[C@H](C)c2ccccc2)cc(N(C)S(C)(=O)=O)c1)C(=O)N[C@H](C(=O)NCc1ccccc1)C(C)C` (single isomer, unassigned): the Ki on Cathepsin D is > 5000 nM; at Beta-secretase 1 it was 70 nM.

Regarding `CO[C@H](CCC(COc1cc(F)cc(F)c1)NC(=O)c1cc(C(=O)N[C@H](C)c2ccccc2)cc(N(C)S(C)(=O)=O)c1)C(=O)N[C@H](C(=O)NCc1ccccc1)C(C)C` (single isomer, unassigned), the results for the Ki at Cathepsin D and on Beta-secretase 1 were > 5000 nM and 130 nM, respectively.

Consider `CC(C)[C@H](NC(=O)[C@@H](C[C@H](O)[C@H](COc1cc(F)cc(F)c1)NC(=O)c1cc(C(=O)N[C@H](C)c2ccccc2)cc(N(C)S(C)(=O)=O)c1)OCC1CC1)C(=O)NCc1ccccc1`, for which the affinity at Beta-secretase 1 corresponds to a Ki of 1.3 nM.

For `CC(C)[C@H](NC(=O)[C@@H](C[C@H](O)[C@H](COc1cc(F)cc(F)c1)NC(=O)c1cc(C(=O)N[C@H](C)c2ccccc2)cc(N(C)S(C)(=O)=O)c1)OCc1ccccc1)C(=O)NCc1ccccc1`, in the assay listed under Homo sapiens, the Ratio Ki worked out at 1.6. Besides, the inhibition constant Ki on Cathepsin D was 62 nM; at Beta-secretase 1 it was 20 nM.

`CCO[C@H](C[C@H](O)[C@H](COc1cc(F)cc(F)c1)NC(=O)c1cc(C(=O)N[C@H](C)c2ccccc2)cc(N(C)S(C)(=O)=O)c1)C(=O)N[C@H](C(=O)NCc1ccccc1)C(C)C`: in the assay listed under Homo sapiens, the Ratio Ki was > 1500. Also, the values for the Ki at Cathepsin D and on Beta-secretase 1 were 3350 nM and 2.1 nM, respectively.

On to `C=CCO[C@H](C[C@H](O)[C@H](COc1cc(F)cc(F)c1)NC(=O)c1cc(C(=O)N[C@H](C)c2ccccc2)cc(N(C)S(C)(=O)=O)c1)C(=O)N[C@H](C(=O)NCc1ccccc1)C(C)C`, for which the Ki at Cathepsin D is 130 nM; at Beta-secretase 1, 3.3 nM.
